Here are results for two compounds from patent US4347242A, “Hypocalcaemic peptides and process for their manufacture” (Ciba-Geigy Corporation, priority 1978, dated 1982).

For assay [1], the system named is rat. The experiment in a line: rat hypocalcaemic activity test described by Kumar et al, J. Endocrinology 33, page 470 [1965] (MRC units). Format: in vivo. The following applies: per mg of peptide or product.
Assay [2] concerns rats. In words: lowering of plasma calcium and plasma phosphate level in tests on rats weighing 50 to 150 g. Format: in vivo, rat.
The subject of assay [3] is patients with increased bone turn over. The experiment in a line: lowering of blood calcium level in patients with increased bone turn over. It is filed as in vivo, human. The settings on record: intravenous, intramuscular or subcutaneous injection of 0.01 to 5 mg, e.g. in 0.1 molar acetate buffer pH 4.6.

Values joined by “and” are separate entries in the source; they are usually repeats but may differ in a detail not shown here. Equal values may be shown once.

As to `CC[C@H](C)[C@H](NC(=O)[C@H](C)NC(=O)[C@@H](NC(=O)[C@H](CCC(N)=O)NC(=O)[C@@H]1CCCN1C(=O)[C@H](Cc1ccccc1)NC(=O)[C@@H](NC(=O)[C@H](Cc1c[nH]cn1)NC(=O)[C@H](Cc1ccccc1)NC(=O)[C@H](CCCCN)NC(=O)[C@H](CC(N)=O)NC(=O)[C@H](Cc1ccccc1)NC(=O)[C@H](CC(=O)O)NC(=O)[C@H](CCC(N)=O)NC(=O)[C@@H](NC(=O)[C@H](Cc1ccc(O)cc1)NC(=O)[C@@H](NC(=O)CNC(=O)[C@H](CC(C)C)NC(=O)[C@H](CCSC)NC(=O)[C@@H]1CSSC[C@H](N)C(=O)NCC(=O)N[C@@H](CC(N)=O)C(=O)N[C@@H](CC(C)C)C(=O)N[C@@H](CO)C(=O)N[C@@H]([C@@H](C)O)C(=O)N1)[C@@H](C)O)[C@@H](C)O)[C@@H](C)O)[C@@H](C)O)C(=O)NCC(=O)N[C@H](C(=O)NCC(=O)N[C@@H](C)C(=O)N1CCC[C@H]1C(N)=O)C(C)C` [HT-C2], in assay [1], the “activity in the rat” value was 100 to 200 MRC units per mg and 100-200 MRC units per mg.
Take Human calcitonin: in assay [2], the plasma calcium level result was “lowers” and the plasma phosphate level result is “lowers”. Moreover, the “calcium level of the blood” value in assay [3] is recorded as “lowers the calcium level of the blood”.
